According to US20240208961A1, “EIF4E INHIBITORS AND USES THEREOF” (PIC Therapeutics, Inc., priority 2022, published 2024):
Several values for one entry are separate records, joined by “and”; a condition that tells them apart may be missing. Equal entries are not always repeated. Where two headings read alike, the source gives them in different places.

How the values were obtained:
[1] = Pharmacokinetic studies of certain compounds in female Balb/c mice (Example 5); format: in vivo
Method in brief: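 Female Balb/c mice (N=9) were fasted overnight and given compound PO as a suspension in 1% CMC/0.2% Tween 80 or IV in 5% DMSO/5% Solutol HS15/90% saline. Facial-vein plasma was taken from 0.083 to 24 h and assayed by LC-MS. Parameters are non-compartmental, and F was based on AUCINF or AUClast.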

ZR-75-1 = experiment: Cell viability assay, adherent cell line, 5 day Alamar Blue (Example 8): ZR-75-1; format: cell-based; conditions: Homo sapiens, 120 h, ZR-75-1, Breast Cancer Cell Viability
[2] = I-8 IV 1 mg/kg, 8 hr, BQL = below quantifiable limit of 3.00 ng/mL
[3] = I-8 IV 1 mg/kg, 24 hr, BQL = below quantifiable limit of 3.00 ng/mL

For CC(C)Cc1sc(Nc2ncc(-c3cccs3)cc2C(=O)O)nc1C1=CCCC1 [Compound I-8], the “Plasma concentration Individual” value ([1]; I-8 IV 1 mg/kg, 0.083 hr, 1 mg/kg) was 2020 ng/mL and 1630 ng/mL, the “Plasma concentration Individual” value ([1]; I-8 IV 1 mg/kg, 0.25 hr, 1 mg/kg) was 632 ng/mL and 700 ng/mL and the “Plasma concentration Individual” value ([1]; I-8 IV 1 mg/kg, 0.5 hr, 1 mg/kg) was 309 ng/mL and 296 ng/mL. The “Plasma concentration Individual” value ([1]; I-8 IV 1 mg/kg, 1 hr, 1 mg/kg) was 66.5 ng/mL and 97.1 ng/mL, the “Plasma concentration Individual” value ([1]; I-8 IV 1 mg/kg, 2 hr, 1 mg/kg) was 25.8 ng/mL and 16.3 ng/mL and the “Plasma concentration Individual” value ([1]; I-8 IV 1 mg/kg, 4 hr, 1 mg/kg) was 7.83 ng/mL and 8.03 ng/mL. The “Plasma concentration Individual” value [1, 2] was “BQL”, the “Plasma concentration Mean” value [1, 2] was “BQL” and the “Plasma concentration Individual” value [1, 3] was “BQL”. For the same molecule, the “Plasma concentration Mean” value [1, 3] was “BQL”, the F ([1]; I-8 PO 50 mg/kg vs IV 1 mg/kg) was 27.8% and the “Plasma concentration Individual” value ([1]; I-8 PO 50 mg/kg, 0.083 hr, 50 mg/kg) was 482 ng/mL and 270 ng/mL. For the same molecule, the “Plasma concentration Individual” value ([1]; I-8 PO 50 mg/kg, 0.25 hr, 50 mg/kg) was 1250 ng/mL and 2030 ng/mL, the “Plasma concentration Individual” value ([1]; I-8 PO 50 mg/kg, 0.5 hr, 50 mg/kg) was 1900 ng/mL and 3970 ng/mL and 4110 ng/mL and the “Plasma concentration Individual” value ([1]; I-8 PO 50 mg/kg, 1 hr, 50 mg/kg) was 3600 ng/mL and 2260 ng/mL. The “Plasma concentration Individual” value ([1]; I-8 PO 50 mg/kg, 2 hr, 50 mg/kg) was 2510 ng/mL and 1700 ng/mL, the “Plasma concentration Individual” value ([1]; I-8 PO 50 mg/kg, 4 hr, 50 mg/kg) was 536 ng/mL and 958 ng/mL and the “Plasma concentration Individual” value ([1]; I-8 PO 50 mg/kg, 8 hr, 50 mg/kg) was 127 ng/mL and 134 ng/mL. For the same molecule, the “Plasma concentration Individual” value ([1]; I-8 PO 50 mg/kg, 24 hr, 50 mg/kg) was 5.77 ng/mL and 14.0 ng/mL and 3.49 ng/mL, the concentration at 0.083 hr ([1]; female, Balb/c, mouse, plasma, iv, 1 mg/kg, I-8 IV 1 mg/kg, 0.083 hr, read-out: Plasma concentration Individual) was 1780 ng/mL and the concentration at 0.083 hr ([1]; female, Balb/c, mouse, plasma, iv, 1 mg/kg, I-8 IV 1 mg/kg, 0.083 hr, read-out: Plasma concentration Mean) was 1810 ng/mL. It also gave a concentration at 0.25 hr ([1]; female, Balb/c, mouse, plasma, iv, 1 mg/kg, I-8 IV 1 mg/kg, 0.25 hr, read-out: Plasma concentration Individual) of 847 ng/mL, a concentration at 0.25 hr ([1]; female, Balb/c, mouse, plasma, iv, 1 mg/kg, I-8 IV 1 mg/kg, 0.25 hr, read-out: Plasma concentration Mean) of 726 ng/mL and a concentration at 0.5 hr ([1]; female, Balb/c, mouse, plasma, iv, 1 mg/kg, I-8 IV 1 mg/kg, 0.5 hr, read-out: Plasma concentration Individual) of 232 ng/mL. It also gave a concentration at 0.5 hr ([1]; female, Balb/c, mouse, plasma, iv, 1 mg/kg, I-8 IV 1 mg/kg, 0.5 hr, read-out: Plasma concentration Mean) of 279 ng/mL, a concentration at 1 hr ([1]; female, Balb/c, mouse, plasma, iv, 1 mg/kg, I-8 IV 1 mg/kg, 1 hr, read-out: Plasma concentration Individual) of 85.2 ng/mL and a concentration at 1 hr ([1]; female, Balb/c, mouse, plasma, iv, 1 mg/kg, I-8 IV 1 mg/kg, 1 hr, read-out: Plasma concentration Mean) of 82.9 ng/mL. The concentration at 2 hr ([1]; female, Balb/c, mouse, plasma, iv, 1 mg/kg, I-8 IV 1 mg/kg, 2 hr, read-out: Plasma concentration Individual) was 24.8 ng/mL, the concentration at 2 hr ([1]; female, Balb/c, mouse, plasma, iv, 1 mg/kg, I-8 IV 1 mg/kg, 2 hr, read-out: Plasma concentration Mean) was 22.3 ng/mL and the concentration at 4 hr ([1]; female, Balb/c, mouse, plasma, iv, 1 mg/kg, I-8 IV 1 mg/kg, 4 hr, read-out: Plasma concentration Individual) was 10 ng/mL. For the same molecule, the concentration at 4 hr ([1]; female, Balb/c, mouse, plasma, iv, 1 mg/kg, I-8 IV 1 mg/kg, 4 hr, read-out: Plasma concentration Mean) was 8.62 ng/mL, the concentration at 0.083 h ([1]; female, Balb/c, mouse, plasma, po, 50 mg/kg, I-8 PO 50 mg/kg, 0.083 hr, read-out: Plasma concentration Individual) was 247 ng/mL and the concentration at 0.083 h ([1]; female, Balb/c, mouse, plasma, po, 50 mg/kg, I-8 PO 50 mg/kg, 0.083 hr, read-out: Plasma concentration Mean) was 333 ng/mL. For the same molecule, the concentration at 0.25 h ([1]; female, Balb/c, mouse, plasma, po, 50 mg/kg, I-8 PO 50 mg/kg, 0.25 hr, read-out: Plasma concentration Individual) was 1220 ng/mL, the concentration at 0.25 h ([1]; female, Balb/c, mouse, plasma, po, 50 mg/kg, I-8 PO 50 mg/kg, 0.25 hr, read-out: Plasma concentration Mean) was 1500 ng/mL and the concentration at 0.5 hr ([1]; female, Balb/c, mouse, plasma, po, 50 mg/kg, I-8 PO 50 mg/kg, 0.5 hr, read-out: Plasma concentration Mean) was 3330 ng/mL. It also gave a concentration at 1 h ([1]; female, Balb/c, mouse, plasma, po, 50 mg/kg, I-8 PO 50 mg/kg, 1 hr, read-out: Plasma concentration Individual) of 1810 ng/mL, a concentration at 1 h ([1]; female, Balb/c, mouse, plasma, po, 50 mg/kg, I-8 PO 50 mg/kg, 1 hr, read-out: Plasma concentration Mean) of 2560 ng/mL and a concentration at 2 h ([1]; female, Balb/c, mouse, plasma, po, 50 mg/kg, I-8 PO 50 mg/kg, 2 hr, read-out: Plasma concentration Individual) of 1670 ng/mL. The concentration at 2 h ([1]; female, Balb/c, mouse, plasma, po, 50 mg/kg, I-8 PO 50 mg/kg, 2 hr, read-out: Plasma concentration Mean) was 1960 ng/mL, the concentration at 4 h ([1]; female, Balb/c, mouse, plasma, po, 50 mg/kg, I-8 PO 50 mg/kg, 4 hr, read-out: Plasma concentration Individual) was 530 ng/mL and the concentration at 4 h ([1]; female, Balb/c, mouse, plasma, po, 50 mg/kg, I-8 PO 50 mg/kg, 4 hr, read-out: Plasma concentration Mean) was 675 ng/mL. The concentration at 8 h ([1]; female, Balb/c, mouse, plasma, po, 50 mg/kg, I-8 PO 50 mg/kg, 8 hr, read-out: Plasma concentration Individual) was 155 ng/mL, the concentration at 8 h ([1]; female, Balb/c, mouse, plasma, po, 50 mg/kg, I-8 PO 50 mg/kg, 8 hr, read-out: Plasma concentration Mean) was 139 ng/mL and the concentration at 24 h ([1]; female, Balb/c, mouse, plasma, po, 50 mg/kg, I-8 PO 50 mg/kg, 24 hr, read-out: Plasma concentration Mean) was 7.75 ng/mL. It also gave an AUC(0-inf) ([1]; mouse, plasma, I-8 IV 1 mg/kg) of 717 ng·h/mL, an AUC(0-t) ([1]; mouse, plasma, I-8 IV 1 mg/kg) of 705 ng·h/mL and a C0 ([1]; mouse, plasma, I-8 IV 1 mg/kg) of 2850 ng/mL. For the same molecule, the MRT inf ([1]; mouse, plasma, I-8 IV 1 mg/kg) was 28.3 min, the MRT last ([1]; mouse, plasma, I-8 IV 1 mg/kg) was 23.2 min and the clearance ([1]; mouse, plasma, I-8 IV 1 mg/kg) was 23.2 mL/min/kg. It also gave a half-life ([1]; mouse, plasma, I-8 IV 1 mg/kg) of 58.2 min, a Vd ([1]; mouse, plasma, I-8 IV 1 mg/kg, read-out: Vss) of 0.657 L/kg and an AUC(0-inf) ([1]; mouse, plasma, I-8 PO 50 mg/kg) of 9970 ng·h/mL. The AUC(0-t) ([1]; mouse, plasma, I-8 PO 50 mg/kg) was 9930 ng·h/mL, the Cmax ([1]; mouse, plasma, I-8 PO 50 mg/kg) was 3330 ng/mL and the MRT inf ([1]; mouse, plasma, I-8 PO 50 mg/kg) was 182 min. For the same molecule, the MRT last ([1]; mouse, plasma, I-8 PO 50 mg/kg) was 176 min, the Tmax ([1]; mouse, plasma, I-8 PO 50 mg/kg) was 30 min and the half-life ([1]; mouse, plasma, I-8 PO 50 mg/kg) was 197 min. For the same molecule, the IC50 (ZR-75-1) was at most 1 µM.
